# According to ChEMBL document CHEMBL1681726, “Discovery of orally available tetrahydroquinoline-based glucocorticoid receptor agonists” (Bioorg Med Chem Lett, 2011):
# Assays:
# [1] = Metabolic stability in human liver microsomes by HPLC-MS/MS; format: ADME, Microsome
# [2] = Metabolic stability in CD-1 […] liver microsomes by HPLC-MS/MS; format: ADME, Microsome; conditions: CD-1, liver microsomes
# [3] = target: T1, Glucocorticoid receptor (Homo sapiens, UniProt P04150); assay: Agonist activity at GR expressed in african green monkey CV1 cells transfected with luciferase gene linked to MMTV promoter assessed as induction of luciferase transactivation activity relative to Dexamethasone; format: functional, cell-based, CV-1
# T1 sequence (P04150 whole entry): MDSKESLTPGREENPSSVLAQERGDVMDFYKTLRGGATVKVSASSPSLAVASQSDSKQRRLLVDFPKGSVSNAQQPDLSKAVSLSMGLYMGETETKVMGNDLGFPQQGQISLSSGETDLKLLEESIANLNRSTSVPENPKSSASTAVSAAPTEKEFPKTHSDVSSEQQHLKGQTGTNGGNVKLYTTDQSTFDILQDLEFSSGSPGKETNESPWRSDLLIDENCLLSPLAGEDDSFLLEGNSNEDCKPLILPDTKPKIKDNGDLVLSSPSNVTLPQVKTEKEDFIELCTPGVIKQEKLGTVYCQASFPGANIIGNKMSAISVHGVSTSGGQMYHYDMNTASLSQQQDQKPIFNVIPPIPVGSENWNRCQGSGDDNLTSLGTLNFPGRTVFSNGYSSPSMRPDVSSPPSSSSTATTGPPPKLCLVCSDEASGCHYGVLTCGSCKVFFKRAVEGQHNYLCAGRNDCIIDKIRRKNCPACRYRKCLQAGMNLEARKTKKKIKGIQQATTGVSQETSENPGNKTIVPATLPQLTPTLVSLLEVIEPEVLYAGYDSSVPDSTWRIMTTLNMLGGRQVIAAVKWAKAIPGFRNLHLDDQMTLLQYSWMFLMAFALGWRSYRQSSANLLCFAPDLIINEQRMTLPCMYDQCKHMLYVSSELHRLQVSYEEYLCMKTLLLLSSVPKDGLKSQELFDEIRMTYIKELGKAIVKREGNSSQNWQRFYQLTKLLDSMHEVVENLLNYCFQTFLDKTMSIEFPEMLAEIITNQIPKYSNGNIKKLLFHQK
# [4] = target: T1, Glucocorticoid receptor; assay: Agonist activity at GR expressed in IL-1beta- and TNFalpha-stimulated HepG2 cells assessed as inhibition of NFKB- or AP-1 mediated E-selectin transcription by luciferase reporter gene assay relative to Dexamethasone; format: functional, cell-based
# [5] = target: T1, Glucocorticoid receptor; assay: Displacement of radiolabeled Dexamethasone from GR
# [6] = target: T1, Glucocorticoid receptor; assay: Agonist activity at human GR expressed in NHDF cells assessed as inhibition of IL-6 production by ELISA relative to Dexamethasone; format: functional, cell-based
# [7] = target: T2, Progesterone receptor (Homo sapiens, UniProt P06401); assay: Binding affinity to PR
# T2 sequence (P06401 whole entry): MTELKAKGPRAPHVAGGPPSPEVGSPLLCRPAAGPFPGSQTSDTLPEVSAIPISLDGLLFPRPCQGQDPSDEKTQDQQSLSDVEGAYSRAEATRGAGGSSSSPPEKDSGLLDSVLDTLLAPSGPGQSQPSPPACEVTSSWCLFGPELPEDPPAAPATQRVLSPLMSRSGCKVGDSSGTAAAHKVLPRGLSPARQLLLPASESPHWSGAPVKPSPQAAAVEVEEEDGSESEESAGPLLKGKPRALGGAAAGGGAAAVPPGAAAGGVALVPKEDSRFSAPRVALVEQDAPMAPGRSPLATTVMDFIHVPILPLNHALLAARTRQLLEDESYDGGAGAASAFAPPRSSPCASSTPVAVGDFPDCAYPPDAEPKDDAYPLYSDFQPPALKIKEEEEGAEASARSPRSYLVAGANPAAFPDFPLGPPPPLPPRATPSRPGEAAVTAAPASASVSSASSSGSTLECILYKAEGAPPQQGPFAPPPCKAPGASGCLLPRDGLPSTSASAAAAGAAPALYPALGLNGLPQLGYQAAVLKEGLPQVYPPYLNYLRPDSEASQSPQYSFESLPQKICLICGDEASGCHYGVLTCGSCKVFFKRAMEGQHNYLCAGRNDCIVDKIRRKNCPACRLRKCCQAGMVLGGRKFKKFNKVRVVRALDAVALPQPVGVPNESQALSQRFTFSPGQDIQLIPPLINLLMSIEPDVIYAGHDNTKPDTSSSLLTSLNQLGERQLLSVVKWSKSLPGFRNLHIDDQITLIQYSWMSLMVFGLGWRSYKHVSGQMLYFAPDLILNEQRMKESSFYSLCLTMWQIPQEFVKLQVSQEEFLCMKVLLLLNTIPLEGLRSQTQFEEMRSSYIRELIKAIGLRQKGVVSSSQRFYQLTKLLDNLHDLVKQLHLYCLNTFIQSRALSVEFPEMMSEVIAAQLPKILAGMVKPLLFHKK
# [8] = Selectivity ratio of Ki for GR to Ki for PR
half-life [1],half-life [2],EC50 [3],IC50 [4],Ki [5],IC50 [6],Ki [7],Ratio Ki [8],SMILES
4.7 min,3.3 min,,,,,,,Cc1cc(-c2cccc3cc[nH]c23)c(Cl)c2c1NC(C)(C)[C@H](O)[C@H]2C (racemic)
,,108 nM,21 nM,9 nM,> 1000 nM,,,Cc1cc(-c2cccc3cc[nH]c23)cc2c1NC(C)(C)[C@H](O)[C@H]2C (racemic)
,,56 nM,5.9 nM,2.3 nM,7.1 nM,,,Cc1cc(-c2cccc3cc[nH]c23)c(F)c2c1NC(C)(C)[C@H](O)[C@H]2C (racemic)
,,0.9 nM,4.7 nM,1.2 nM,9.3 nM,,,Cc1cc(-c2cccc3cc[nH]c23)c(C)c2c1NC(C)(C)[C@H](O)[C@H]2C (racemic)
,,16 nM,15 nM,11.7 nM,> 1000 nM,,,CCc1c(-c2cccc3cc[nH]c23)cc(C)c2c1[C@H](C)[C@@H](O)C(C)(C)N2 (racemic)
,,105 nM,11 nM,319 nM,> 1000 nM,,,Cc1cc(-c2cccc3cc[nH]c23)c(/C=N/O)c2c1NC(C)(C)[C@H](O)[C@H]2C (racemic)
,,0.4 nM,1.7 nM,6.9 nM,4.2 nM,,,CO/N=C/c1c(-c2cccc3cc[nH]c23)cc(C)c2c1[C@H](C)[C@@H](O)C(C)(C)N2 (racemic)
,,0.2 nM,0.9 nM,1.5 nM,3.4 nM,,,CCO/N=C/c1c(-c2cccc3cc[nH]c23)cc(C)c2c1[C@H](C)[C@@H](O)C(C)(C)N2 (racemic)
,,34 nM,5.5 nM,6 nM,3.8 nM,,,Cc1cc(-c2cccc3cc[nH]c23)c(/C=N/OC(C)(C)C)c2c1NC(C)(C)[C@H](O)[C@H]2C (racemic)
,,3.7 nM,3.1 nM,3.5 nM,14.4 nM,,,Cc1cc(-c2cccc3cc[nH]c23)c(/C=N/OCc2ccccc2)c2c1NC(C)(C)[C@H](O)[C@H]2C (racemic)
,,40 nM,> 1000 nM,19.6 nM,> 1000 nM,,,C=Cc1c(-c2cccc3cc[nH]c23)cc(C)c2c1[C@H](C)[C@@H](O)C(C)(C)N2 (racemic)
,,5.7 nM,6.5 nM,16.6 nM,16 nM,,,Cc1cc(-c2cccc3cc[nH]c23)c(/C=C/C#N)c2c1NC(C)(C)[C@H](O)[C@H]2C (racemic)
13 min,13 min,9.6 nM,5.3 nM,1.3 nM,16 nM,,,Cc1cc(-c2cccc3cc[nH]c23)c(C#N)c2c1NC(C)(C)[C@H](O)[C@H]2C (racemic)
,,112 nM,7.8 nM,10.4 nM,> 1000 nM,,,CC(=O)/C=C/c1c(-c2cccc3cc[nH]c23)cc(C)c2c1[C@H](C)[C@@H](O)C(C)(C)N2 (racemic)
21 min,25 min,36 nM,21 nM,1.8 nM,26 nM,190 nM,> 100,Cc1c(Cl)c(-c2cccc3cc[nH]c23)cc2c1NC(C)(C)[C@H](O)[C@H]2C (racemic)
17 min,16 min,40 nM,1.7 nM,0.9 nM,4.1 nM,,,Cc1c(F)c(-c2cccc3cc[nH]c23)cc2c1NC(C)(C)[C@H](O)[C@H]2C (racemic)
,,205 nM,42 nM,38.3 nM,> 1000 nM,,,Cc1c(-c2cccc3cc[nH]c23)cc2c(c1C)NC(C)(C)[C@H](O)[C@H]2C (racemic)
,,> 1000 nM,> 1000 nM,106 nM,> 1000 nM,,,Cc1c2c(cc(-c3cccc4cc[nH]c34)c1C(F)(F)F)[C@H](C)[C@@H](O)C(C)(C)N2 (racemic)
,,18 nM,13 nM,3.1 nM,> 1000 nM,,,C=Cc1c(-c2cccc3cc[nH]c23)cc2c(c1C)NC(C)(C)[C@H](O)[C@H]2C (racemic)
15 min,3.8 min,89 nM,17 nM,8 nM,14 nM,,,C[C@H]1c2c(Cl)c(-c3cccc4cc[nH]c34)cc(F)c2NC(C)(C)[C@@H]1O (racemic)
,,11 nM,7.7 nM,2.4 nM,20 nM,,,C[C@H]1c2cc(-c3cccc4cc[nH]c34)c(F)c(F)c2NC(C)(C)[C@@H]1O (racemic)
,,16 nM,3.8 nM,5 nM,19 nM,,,C[C@H]1c2c(F)c(-c3cccc4cc[nH]c34)c(F)c(F)c2NC(C)(C)[C@@H]1O (racemic)
,,1.3 nM,3.9 nM,1 nM,16 nM,,,C[C@H]1c2c(F)c(-c3cccc4cc[nH]c34)c(F)c(Cl)c2NC(C)(C)[C@@H]1O (racemic)
,,480 nM,301 nM,157 nM,> 1000 nM,,,C[C@H]1c2c(cc(Cl)c(-c3cccc4cc[nH]c34)c2Cl)NC(C)(C)[C@@H]1O (racemic)
